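Cells were grown in 96-well plates and exposed to each compound for 48 hours at five concentrations; endpoints were interpolated linearly between bracketing concentrations, or set to the highest concentration if not reached. GI50 marks 50% less growth.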 Calls of active or inactive are those of the source. No stated cut-off is given here; in the data, active = GI50 up to about 1.1 µM and inactive = higher.
Legend:
Assay in all cases: NCI tumour cell line growth inhibition, 48 h
DU-145 = tested on: DU-145
HL-60 = tested on: HL-60
NCI/ADR-RES = tested on: NCI/ADR-RES
786-0 = tested on: 786-0
M14 = tested on: M14
HCT-116 = tested on: HCT-116
COLO 205 = tested on: COLO 205
SN12C = tested on: SN12C
EKVX = tested on: EKVX
OVCAR-8 = tested on: OVCAR-8
MDA-MB-435 = tested on: MDA-MB-435
MOLT-4 = tested on: MOLT-4
SF-295 = tested on: SF-295
PC-3 = tested on: PC-3
SK-MEL-28 = tested on: SK-MEL-28
UACC-257 = tested on: UACC-257
KM12 = tested on: KM12
SF-268 = tested on: SF-268
NCI-H460 = tested on: NCI-H460
SR = tested on: SR

Measured: GI50

CCN(CC)CCCNc1nc(=O)[nH]c(C)c1C(=O)Nc1c2ccccc2nc2ccccc12
inactive: DU-145 12.8 µM | HL-60 5.01 µM | NCI/ADR-RES 12.9 µM | 786-0 11.3 µM | M14 15.5 µM | HCT-116 5.41 µM | COLO 205 8.79 µM | SN12C 15.4 µM | EKVX 12.2 µM | OVCAR-8 21.7 µM | MDA-MB-435 5.21 µM | MOLT-4 4.28 µM | SF-295 5.97 µM | PC-3 17.1 µM | SK-MEL-28 12.3 µM | UACC-257 15.6 µM | KM12 3.56 µM

O=S(=O)(O)c1cc(S(=O)(=O)O)c2c(Nc3ccnc4ccccc34)ccc(S(=O)(=O)O)c2c1
inactive: DU-145 > 100 µM | HL-60 > 100 µM | NCI/ADR-RES > 100 µM | 786-0 > 100 µM | M14 > 100 µM | HCT-116 > 100 µM | COLO 205 > 100 µM | SN12C > 100 µM | EKVX > 100 µM | OVCAR-8 > 100 µM | MDA-MB-435 > 100 µM | MOLT-4 > 100 µM | SF-295 > 100 µM | PC-3 > 100 µM | SF-268 > 100 µM | NCI-H460 > 100 µM | SK-MEL-28 > 100 µM | UACC-257 > 100 µM | KM12 > 100 µM

COc1cc(/C=C/C(=O)OC2C(O)C3CC(OC(=O)c4cc(OC)c(OC)c(OC)c4)CC2N3C)cc(OC)c1OC (configuration not stated)
inactive: DU-145 > 50 µM | NCI/ADR-RES 13.7 µM | 786-0 18.5 µM | M14 > 50 µM | HCT-116 20.7 µM | COLO 205 12.3 µM | SN12C 9.89 µM | EKVX > 50 µM | OVCAR-8 12.5 µM | MDA-MB-435 23.6 µM | MOLT-4 46 µM | SF-295 23.4 µM | PC-3 35.6 µM | SR 10.1 µM | SF-268 > 50 µM | NCI-H460 21.8 µM | UACC-257 > 50 µM | KM12 25.3 µM

O=C(Nc1cnc(O)nc1O)C(Cl)Cl
inactive: DU-145 > 100 µM | HL-60 > 100 µM | NCI/ADR-RES > 100 µM | 786-0 > 100 µM | M14 > 100 µM | HCT-116 > 100 µM | COLO 205 > 100 µM | SN12C > 100 µM | EKVX > 100 µM | OVCAR-8 > 100 µM | MDA-MB-435 > 100 µM | MOLT-4 > 100 µM | SF-295 > 100 µM | PC-3 > 100 µM | SK-MEL-28 > 100 µM | UACC-257 > 100 µM | KM12 > 100 µM

O=C(c1cccs1)N1CCCN(C(=O)c2cccs2)C1=S
inactive: DU-145 > 100 µM | HL-60 > 100 µM | NCI/ADR-RES > 100 µM | 786-0 > 100 µM | M14 > 100 µM | HCT-116 > 100 µM | COLO 205 > 100 µM | SN12C > 100 µM | EKVX 52.2 µM | OVCAR-8 > 100 µM | MDA-MB-435 > 100 µM | MOLT-4 > 100 µM | SF-295 > 100 µM | PC-3 > 100 µM | SF-268 > 100 µM | SK-MEL-28 > 100 µM | UACC-257 > 100 µM | KM12 > 100 µM

COC(=O)/C=C1\CCC(C)(C(=O)NS(=O)(=O)c2ccc(C)cc2)C1(C)C (configuration not stated)
inactive: DU-145 > 100 µM | HL-60 > 100 µM | NCI/ADR-RES > 100 µM | 786-0 > 100 µM | M14 > 100 µM | HCT-116 > 100 µM | COLO 205 > 100 µM | SN12C > 100 µM | EKVX > 100 µM | OVCAR-8 > 100 µM | MDA-MB-435 4.48 µM | MOLT-4 > 100 µM | SF-295 > 100 µM | PC-3 > 100 µM | SF-268 > 100 µM | NCI-H460 > 100 µM | UACC-257 > 100 µM | KM12 > 100 µM

From ChEMBL document CHEMBL1201862, “PubChem BioAssay data set” (2004)
